Biological target: ΔmtDXPS (Mycobacterium tuberculosis, UniProt P9WNS3, D231G/I229G/K230G/L233G/S232G/S234G)
Format: binding

O=C(CCCOc1ccc(Cl)cc1Cl)NCCc1ccc(O)cc1F [Compound 39]
fold decrease in binding affinity for ΔmtDXPS: ~1.5 fold

Reference: PMC8188608 (Chemical Science, 2021)
